In brackets after ≈: the same amount, converted by molar mass. Read-outs that look alike come from different tables or passages of the source.
Tests used:
[1] = system: A. baumannii CQ4322; assay: Broth microdilution MIC/MBC, glycosides with or without polymyxins; type: cell-based, Acinetobacter baumannii; conditions: for MIC: Acinetobacter baumannii, CQ4322
[2] = system: E. coli NCTC 13846; assay: as above; type: cell-based, Escherichia coli; conditions: strain B
[3] = system: Bacillus anthracis (Sterne, ovine and pathogenic forms), Enterococcus faecalis and Bacillus cereus; conditions: Gram-positive bacteria; cited from earlier work
[4] = system: K. pneumoniae CQ1942; assay: Broth microdilution MIC, glycosides with or without polymyxins; type: cell-based, Klebsiella pneumoniae; conditions: for MIC: Klebsiella pneumoniae, CQ1942
[5] = system: E. coli ATCC 25922; assay: Broth microdilution MIC/MBC, glycosides with or without polymyxins; type: cell-based, Escherichia coli; conditions: for MIC: Escherichia coli, ATCC25922
[6] = alone, read-out: MICA (MIC of each compound individually)
[7] = combination with the lowest FICI
[8] = compound + colistin, lowest FICI

With `CCCCCCCCCCCCO[C@H]1O[C@H](C)C[C@H](O)[C@H]1O` [Compound 1, dodecyl 4,6-dideoxy-α/β-D-xylo-hexopyranoside] the MIC ([1]; agent alone, no adjuvant (polymyxin conc. 0), strain G, read-out: MIC) was over 100 mg/L, the MIC [1, 6] was over 100 mg/L and the “MIC of colistin in combination with the compound” value (“MIC … with the compound” for short) ([1]; Cpd conc. 0.4 μg/mL, strain G) was over 0.5 mg/L. For the same molecule, the “MIC … with the compound” value ([1]; Cpd conc. 0.8 μg/mL, strain G) was over 0.5 mg/L, the “MIC … with the compound” value ([1]; Cpd conc. 3.125 μg/mL, strain G) was 0.25 mg/L and the “MIC … with the compound” value ([1]; Cpd conc. 6.25 μg/mL, strain G) was 0.25 mg/L. The “MIC … with the compound” value ([1]; Cpd conc. 12.5 μg/mL, strain G) was 0.25 mg/L, the “MIC … with the compound” value ([1]; Cpd conc. […], strain G) was 0.5 mg/L and the “MIC of compound in combination with PMB” value ([1]; PMB 0.25 μg/mL, strain G) was over 100 mg/L. The “MIC of compound in combination with PMB” value ([1]; PMB 0.5 μg/mL, strain G) was 3.1 mg/L, the “MIC of compound in combination with colistin” value ([1]; colistin 0.06 μg/mL, strain G) was over 100 mg/L and the “MIC of compound in combination with colistin” value ([1]; colistin 0.125 μg/mL, strain G) was over 100 mg/L. For the same molecule, the “MIC of compound in combination with colistin” value ([1]; colistin 0.25 μg/mL, strain G) was 3.1 mg/L, the “MIC of compound in combination with colistin” value ([1]; colistin 0.5 μg/mL, strain G) was 1.6 mg/L and the “MICA(A + B) (MIC of compound in combination with colistin)” value (“MICA(A + B)” below) [1, 7] was 3.125 mg/L. For the same molecule, the “MICB(A + B) (MIC of colistin in combination with compound)” value (“MICB(A + B)” for short) [1, 7] was 0.25 mg/L, the “Interpretation (of FICI)” value ([1]; compound + colistin) was “Additive (from 0.5 to 1.0 were additive)” and the FICI [1, 8] was 0.52. For the same molecule, the “MIC … with the compound” value ([2]; Cpd conc. 0.4 μg/mL) was over 0.5 mg/L, the “MIC … with the compound” value ([2]; Cpd conc. 0.8 μg/mL) was over 0.5 mg/L and the “MIC … with the compound” value ([2]; Cpd conc. 3.125 μg/mL) was over 0.5 mg/L. The “MIC … with the compound” value ([2]; Cpd conc. 6.25 μg/mL) was over 0.5 mg/L, the “MIC … with the compound” value ([2]; Cpd conc. 12.5 μg/mL) was over 0.5 mg/L and the “MIC … with the compound” value ([2]; Cpd conc. […]) was over 0.5 mg/L. The MIC ([2]; Escherichia coli, NCTC13846, agent alone, no adjuvant (polymyxin conc. 0), read-out: MIC) was over 100 mg/L, the “MIC of compound in combination with PMB” value ([2]; PMB 0.25 μg/mL) was over 100 mg/L and the “MIC of compound in combination with PMB” value ([2]; PMB 0.5 μg/mL) was over 100 mg/L. For the same molecule, the “MIC of compound in combination with colistin” value ([2]; colistin 0.06 μg/mL) was over 100 mg/L, the “MIC of compound in combination with colistin” value ([2]; colistin 0.125 μg/mL) was over 100 mg/L and the “MIC of compound in combination with colistin” value ([2]; colistin 0.25 μg/mL) was over 100 mg/L. The “MIC of compound in combination with colistin” value ([2]; colistin 0.5 μg/mL) was over 100 mg/L, the MIC [3] was 12.6 µM (≈ 3.99 µg/mL) and the “MIC … with the compound” value ([4]; Cpd conc. 0.4 μg/mL, strain E) was over 0.5 mg/L. For the same molecule, the “MIC … with the compound” value ([4]; Cpd conc. 0.8 μg/mL, strain E) was 0.5 mg/L, the “MIC … with the compound” value ([4]; Cpd conc. 3.125 μg/mL, strain E) was 0.25 mg/L and the “MIC … with the compound” value ([4]; Cpd conc. 6.25 μg/mL, strain E) was 0.25 mg/L. The “MIC … with the compound” value ([4]; Cpd conc. 12.5 μg/mL, strain E) was 0.25 mg/L, the “MIC … with the compound” value ([4]; Cpd conc. […], strain E) was 0.5 mg/L and the MIC ([4]; agent alone, no adjuvant (polymyxin conc. 0), strain E, read-out: MIC) was over 100 mg/L. The MIC [4, 6] was over 100 mg/L, the “MIC of compound in combination with PMB” value ([4]; PMB 0.25 μg/mL, strain E) was over 100 mg/L and the “MIC of compound in combination with PMB” value ([4]; PMB 0.5 μg/mL, strain E) was 1.6 mg/L. For the same molecule, the “MIC of compound in combination with colistin” value ([4]; colistin 0.06 μg/mL, strain E) was over 100 mg/L, the “MIC of compound in combination with colistin” value ([4]; colistin 0.125 μg/mL, strain E) was over 100 mg/L and the “MIC of compound in combination with colistin” value ([4]; colistin 0.25 μg/mL, strain E) was 3.1 mg/L. For the same molecule, the “MIC of compound in combination with colistin” value ([4]; colistin 0.5 μg/mL, strain E) was 0.8 mg/L, the “MICA(A + B)” value [4, 7] was 3.125 mg/L and the “MICB(A + B)” value [4, 7] was 0.25 mg/L. The “Interpretation (of FICI)” value ([4]; compound + colistin) was “Additive (from 0.5 to 1.0 were additive)”, the FICI [4, 8] was 0.52 and the “MIC … with the compound” value ([5]; Cpd conc. 0.4 μg/mL, strain A) was over 0.5 mg/L. For the same molecule, the “MIC … with the compound” value ([5]; Cpd conc. 0.8 μg/mL, strain A) was over 0.5 mg/L, the “MIC … with the compound” value ([5]; Cpd conc. 3.125 μg/mL, strain A) was 0.25 mg/L and the “MIC … with the compound” value ([5]; Cpd conc. 6.25 μg/mL, strain A) was 0.25 mg/L. For the same molecule, the “MIC … with the compound” value ([5]; Cpd conc. 12.5 μg/mL, strain A) was 0.25 mg/L, the “MIC … with the compound” value ([5]; Cpd conc. […], strain A) was over 0.5 mg/L and the MIC ([5]; agent alone, no adjuvant (polymyxin conc. 0), strain A, read-out: MIC) was over 100 mg/L. For the same molecule, the MIC [5, 6] was over 100 mg/L, the “MIC of compound in combination with PMB” value ([5]; PMB 0.25 μg/mL, strain A) was over 100 mg/L and the “MIC of compound in combination with PMB” value ([5]; PMB 0.5 μg/mL, strain A) was 3.1 mg/L. The “MIC of compound in combination with colistin” value ([5]; colistin 0.06 μg/mL, strain A) was over 100 mg/L, the “MIC of compound in combination with colistin” value ([5]; colistin 0.125 μg/mL, strain A) was over 100 mg/L and the “MIC of compound in combination with colistin” value ([5]; colistin 0.25 μg/mL, strain A) was 3.1 mg/L. For the same molecule, the “MIC of compound in combination with colistin” value ([5]; colistin 0.5 μg/mL, strain A) was 3.1 mg/L, the “MICA(A + B)” value [5, 7] was 3.125 mg/L and the “MICB(A + B)” value [5, 7] was 0.25 mg/L. For the same molecule, the “Interpretation (of FICI)” value ([5]; compound + colistin) was “Additive (from 0.5 to 1.0 were additive)” and the FICI [5, 8] was 0.52.
